Test results from ChEMBL document CHEMBL1201862, “PubChem BioAssay data set” (2004).
The source made the active and inactive calls.

Key:
[1] = molecular target: T1, Heat shock factor protein 1 (Mus musculus, UniProt P38532); assay: decrease of HSF1-responsive luciferase luminescence – cell-based, NIH3T3, dose retest, confirmation (AID 2382); format: functional;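 also: NIH3T3 fibroblasts with HSF1-driven luciferase reporter stressed by proteasome inhibitor MG132; luminescence from HSF1-driven luciferase expression after 8 hours of MG132 stress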
T1 sequence (P38532 whole entry): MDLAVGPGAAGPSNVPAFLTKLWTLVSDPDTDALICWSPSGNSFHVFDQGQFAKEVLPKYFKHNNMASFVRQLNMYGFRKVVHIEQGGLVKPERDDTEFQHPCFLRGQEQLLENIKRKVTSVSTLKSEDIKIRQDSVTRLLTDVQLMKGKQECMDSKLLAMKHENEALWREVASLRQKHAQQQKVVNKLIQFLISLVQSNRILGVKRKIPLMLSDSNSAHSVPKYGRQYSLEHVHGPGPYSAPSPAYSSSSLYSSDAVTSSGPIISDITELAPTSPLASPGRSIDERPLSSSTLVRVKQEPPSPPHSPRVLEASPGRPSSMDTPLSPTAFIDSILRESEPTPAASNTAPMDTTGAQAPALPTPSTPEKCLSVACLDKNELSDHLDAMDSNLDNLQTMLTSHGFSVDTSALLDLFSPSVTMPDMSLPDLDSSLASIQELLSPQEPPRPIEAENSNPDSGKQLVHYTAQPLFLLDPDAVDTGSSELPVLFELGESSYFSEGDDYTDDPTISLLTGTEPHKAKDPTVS

[2] = molecular target: FAD-linked sulfhydryl oxidase ALR (Homo sapiens, UniProt P55789); assay: ALR-catalysed DTT oxidation blockers – biochemical, H2O2 detection, luminescence, cherry-pick, dose response (AID 493248)
Large T antigen = Large T antigen (Simian virus 40, UniProt P03070); format: functional, Betapolyomavirus macacae;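 also: Confirmatory-stage PubChem screen for compounds that inhibit SV40 T antigen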
[3] = molecular target: T2, Carboxy-terminal domain RNA polymerase II polypeptide A small phosphatase 1 (Homo sapiens, UniProt Q9GZU7); assay: CTDSP1 inhibitors, concentration-response, biochemical, absorbance readout, ultra-high-throughput screen actives (AID 540297); format: functional
T2 sequence (Q9GZU7 whole entry): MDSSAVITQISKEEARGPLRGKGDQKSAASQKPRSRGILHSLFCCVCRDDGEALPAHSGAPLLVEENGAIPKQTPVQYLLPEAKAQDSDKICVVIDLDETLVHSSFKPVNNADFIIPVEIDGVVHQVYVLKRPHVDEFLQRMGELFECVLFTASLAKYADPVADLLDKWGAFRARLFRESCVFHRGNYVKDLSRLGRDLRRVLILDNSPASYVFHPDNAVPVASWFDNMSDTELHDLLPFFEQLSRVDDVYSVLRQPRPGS

[4] = microbe, parasite or virus in culture; format: functional; details: Mycobacterium tuberculosis
[5] = Luminescence Cell-Based Dose Confirmation HTS to Identify Activators of 5'UTR Stem-Loop Driven Alpha-Synuclein mRNA Translation in H4 Neuroglioblastoma Cells. [Related pubchem assays: 1829 (Project Summary), 1814 (Primary HTS)]; format: functional
H4 = assay: Luminescence Cell-Based Dose Response HTS to Identify Activators of 5'UTR Stem-Loop Driven Prion Protein mRNA Translation in H4 Neuroglioblastoma Cells. [Related pubchem assays: 1829 (Project Summary), 1814 (Primary HTS)]; format: functional; details: Homo sapiens
[6] = molecular target: T3, Histone-lysine N-methyltransferase NSD2 (Homo sapiens, UniProt O96028); format: biochemical
T3 sequence (O96028 whole entry): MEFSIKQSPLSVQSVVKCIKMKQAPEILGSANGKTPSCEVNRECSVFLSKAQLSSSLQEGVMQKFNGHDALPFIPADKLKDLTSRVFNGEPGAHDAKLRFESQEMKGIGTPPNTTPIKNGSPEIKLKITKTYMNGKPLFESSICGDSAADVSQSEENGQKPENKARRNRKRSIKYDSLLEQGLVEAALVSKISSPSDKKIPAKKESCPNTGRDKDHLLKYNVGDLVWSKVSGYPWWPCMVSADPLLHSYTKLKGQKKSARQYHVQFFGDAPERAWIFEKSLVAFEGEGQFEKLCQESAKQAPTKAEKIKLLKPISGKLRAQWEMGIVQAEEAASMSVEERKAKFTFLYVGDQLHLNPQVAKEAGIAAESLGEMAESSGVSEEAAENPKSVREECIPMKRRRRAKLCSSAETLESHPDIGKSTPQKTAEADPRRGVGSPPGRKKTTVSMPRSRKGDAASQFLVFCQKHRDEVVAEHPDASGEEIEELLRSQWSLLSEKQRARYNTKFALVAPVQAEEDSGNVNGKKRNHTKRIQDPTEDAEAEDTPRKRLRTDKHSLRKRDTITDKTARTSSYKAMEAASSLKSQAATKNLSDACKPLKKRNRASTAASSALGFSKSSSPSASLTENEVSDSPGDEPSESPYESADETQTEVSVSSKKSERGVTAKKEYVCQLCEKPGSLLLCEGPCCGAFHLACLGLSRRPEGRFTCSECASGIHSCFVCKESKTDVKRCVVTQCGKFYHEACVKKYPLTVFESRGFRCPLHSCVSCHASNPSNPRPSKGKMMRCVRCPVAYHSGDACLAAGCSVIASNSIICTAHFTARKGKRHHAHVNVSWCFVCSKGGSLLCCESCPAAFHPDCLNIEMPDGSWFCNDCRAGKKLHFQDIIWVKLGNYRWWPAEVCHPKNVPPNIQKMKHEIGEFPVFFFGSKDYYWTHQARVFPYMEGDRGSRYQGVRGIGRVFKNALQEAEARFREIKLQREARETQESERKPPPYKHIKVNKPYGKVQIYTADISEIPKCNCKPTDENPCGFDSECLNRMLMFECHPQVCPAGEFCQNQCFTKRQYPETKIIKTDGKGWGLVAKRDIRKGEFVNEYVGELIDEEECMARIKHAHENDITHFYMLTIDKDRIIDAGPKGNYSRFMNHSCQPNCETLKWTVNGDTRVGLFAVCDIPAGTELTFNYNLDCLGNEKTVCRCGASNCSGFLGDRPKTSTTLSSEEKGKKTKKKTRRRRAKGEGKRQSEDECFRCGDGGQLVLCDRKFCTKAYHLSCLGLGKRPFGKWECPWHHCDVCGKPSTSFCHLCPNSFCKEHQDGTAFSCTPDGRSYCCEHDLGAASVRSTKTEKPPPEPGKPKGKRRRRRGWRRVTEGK

[7] = reduction of Shn3 3'UTR-driven luciferase in osteoblasts – cell-based, Clone20 osteoblasts, firefly luciferase, cherry-picked, dose response (AID 624132); format: functional;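 also: firefly luciferase luminescence from reporter carrying the Shn3 3'UTR in osteoblasts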
Cytochrome P450 3A4 = Cytochrome P450 3A4 (Homo sapiens, UniProt P08684);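 also: CYP3A4 tested as one member of a cytochrome P450 panel screen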
HEK293 = assay: EBV LMP1 TES2 canonical NF-kB signalling blockers – cell-based, HEK293, luciferase, cherry-pick, dose response (AID 588343); format: functional; details: Homo sapiens
[8] = non-specific 3'UTR reporter inhibition in Clone20-Shn3RL – cell-based, Renilla luciferase, cherry-picked, counter-screen for Shn3 inhibitor project, dose response (AID 624133); format: functional
[9] = loss of viability in HepG2 cells – cell-based, CellTiter-Glo, cherry-picked, cytotoxicity control for Shn3 inhibitor project, dose response (AID 624134); format: functional
[10] = viability of uninfected HEp-2 cells – cell-based, HTS, cytotoxicity control for RSV inhibitor project, dose response (AID 2410); format: functional; details: human respiratory syncytial virus

Large T antigen, sequence (P03070 whole entry, the tested form may be a part): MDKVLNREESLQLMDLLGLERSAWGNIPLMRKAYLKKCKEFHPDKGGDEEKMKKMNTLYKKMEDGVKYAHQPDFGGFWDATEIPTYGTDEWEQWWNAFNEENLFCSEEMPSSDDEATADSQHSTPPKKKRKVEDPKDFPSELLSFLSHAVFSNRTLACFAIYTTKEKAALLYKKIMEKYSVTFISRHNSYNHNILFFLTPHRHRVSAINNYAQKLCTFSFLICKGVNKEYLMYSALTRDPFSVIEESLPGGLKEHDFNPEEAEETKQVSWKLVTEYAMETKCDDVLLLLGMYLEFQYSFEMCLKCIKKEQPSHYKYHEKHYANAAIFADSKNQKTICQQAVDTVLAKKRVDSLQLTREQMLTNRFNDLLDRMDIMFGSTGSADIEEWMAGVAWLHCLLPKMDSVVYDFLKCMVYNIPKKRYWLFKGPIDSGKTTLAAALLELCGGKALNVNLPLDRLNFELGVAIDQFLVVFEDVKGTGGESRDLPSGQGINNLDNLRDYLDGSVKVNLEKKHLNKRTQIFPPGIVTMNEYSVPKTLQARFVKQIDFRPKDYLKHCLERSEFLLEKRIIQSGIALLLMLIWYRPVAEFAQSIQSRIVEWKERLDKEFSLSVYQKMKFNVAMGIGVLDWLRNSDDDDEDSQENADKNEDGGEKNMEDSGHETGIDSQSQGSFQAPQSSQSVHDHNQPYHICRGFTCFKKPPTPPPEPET
FAD-linked sulfhydryl oxidase ALR, sequence (P55789 whole entry): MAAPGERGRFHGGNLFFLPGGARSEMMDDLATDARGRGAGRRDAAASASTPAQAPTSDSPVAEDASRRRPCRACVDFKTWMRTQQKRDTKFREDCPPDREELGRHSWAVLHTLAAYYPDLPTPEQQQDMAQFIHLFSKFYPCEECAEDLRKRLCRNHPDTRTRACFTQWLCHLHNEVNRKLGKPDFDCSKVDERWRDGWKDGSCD
Cytochrome P450 3A4, sequence (P08684 whole entry): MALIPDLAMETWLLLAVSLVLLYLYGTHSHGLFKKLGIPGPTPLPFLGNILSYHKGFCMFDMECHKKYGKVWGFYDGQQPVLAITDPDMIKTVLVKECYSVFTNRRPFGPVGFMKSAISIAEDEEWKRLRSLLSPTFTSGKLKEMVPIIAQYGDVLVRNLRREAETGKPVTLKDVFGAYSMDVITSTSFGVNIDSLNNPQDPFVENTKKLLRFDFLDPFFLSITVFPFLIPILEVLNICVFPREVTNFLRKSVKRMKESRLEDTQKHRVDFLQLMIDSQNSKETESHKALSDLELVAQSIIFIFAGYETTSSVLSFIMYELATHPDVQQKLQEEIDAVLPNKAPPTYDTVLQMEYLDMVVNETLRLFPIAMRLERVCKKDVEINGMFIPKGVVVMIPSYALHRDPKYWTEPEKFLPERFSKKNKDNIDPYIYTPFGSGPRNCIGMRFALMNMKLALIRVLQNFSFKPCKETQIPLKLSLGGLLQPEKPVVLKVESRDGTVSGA

With `COc1ccc(C(=O)Oc2ccc(/C=N/O)cc2)cc1` the EC50 [1] was > 195 µM (not active) and the AC50 [2] was 0.247 µM (active).
With `CCOc1ccccc1N=C(S)N1CCN(c2ccc(O)cc2)CC1` the IC50 (Large T antigen) was 6.28 µM (active).
With `Cc1nn(-c2ccccc2)c2nc(O)c(CNc3ccc(N4CCOCC4)cc3)cc12` the IC50 (Large T antigen) was 5.01 µM (active).
In the case of `C/C(=N\NC(=O)c1ccccc1O)c1ccc(NC(=O)c2ccccc2)cc1`, the IC50 [3] was 7.56 µM (active).
For `C=CCn1c(=O)/c(=C/c2ccc(Cl)cc2)s/c1=C(/C#N)c1nnc2n1CCCCC2`, the CC50 [4] was 40 µM (active).
With `CC(C)(C)C1CCc2c(sc3nc(SCC(N)=O)nc(N)c23)C1` (centres undefined) the EC50 [5] was 27.3 µM (active), the EC50 (H4) was 24.9 µM (active) and the CC50 [4] was > 40 µM (active).
With `N=C1/C(=C\c2ccc(Br)o2)C(=O)N=C2SC(CC(=O)N3CCOCC3)=NN12` the AC50 [6] was > 20 µM (inactive) and the IC50 [3] was 18.3 µM (active).
For `O=S(=O)(c1ccccc1)N1CCN(c2cc(-c3ccccc3)nc3ncnn23)CC1`, the AC50 [7] was 1.12 µM (active), the AC50 (Cytochrome P450 3A4) was 14.1 µM (inconclusive) and the AC50 (HEK293) was 3.23 µM (active). The AC50 [8] was 5.98 µM (active) and the AC50 [9] was 48.1 µM (active).
With `CC(=O)c1sc(C(=O)O)c(-c2ccco2)c1-c1ccco1` the IC50 [3] was 15.5 µM (active).
In the case of `CCOC(=O)c1[nH]nc(-c2cc(CC)c(O)cc2O)c1-c1cscn1`, the CC50 [10] was 22.6 µM (active) and the IC50 (Large T antigen) was 20.6 µM (active).
